Test: Concentration-ECG (QTcF, HR, PR, QRS) analysis from 24-hour Holter
Type: in vivo, human
Description: A thorough time-matched (TM∘) ECG parameters analysis in relation with SAR443820 concentrations on Day 1 (SAD-Part 1a) and on Day 14 (MAD Part 2) over 24 hours compared to the baseline prior the first dosing was performed on ECG extracted from 24-hour Holter data.
For Part 1a (SAD) and Part 2 (MAD), the concentration-ECG population will encompass all randomized participants treated by SAR443820 as long as they have at least 1 ECG assessment time-matched with a pharmacokinetic concentration (ECGs centrally read coming from 24-hours Holter ECG). Participants randomized in the placebo group will also be included in the Concentration-ECG population if they have at least 1 non missing change from baseline in ECG parameter. Exposure-response analyses between QTcF parameters (change from time-matched baseline in 24-hours Holter ECG data) and corresponding Compound 1 concentrations were performed using graphical tools and regression methods over 24 hours on Day 1 (SAD-Part 1a) or Day 14 (MAD-Part 2) post-dose. Predictions at selected concentrations were computed using a linear mixed effect model (see Am Heart J. 2014; 168(3):262-72. J Pharmacokinet Pharmacodyn. 2018; 45(3):383-97).

[1] = Part 1a Day 1, 10 mg, at Cmax 116.00 ng/ml
[2] = Part 1a Day 1, 20 mg, at Cmax 241.00 ng/ml
[3] = Part 1a Day 1, 30 mg, at Cmax 417.00 ng/ml
[4] = Part 1a Day 1, 40 mg, at Cmax 555.00 ng/ml
[5] = Part 2 Day 14, 10 mg QD, at Cmax 158.00 ng/ml
[6] = Part 2 Day 14, 15 mg BID, at Cmax 268.00 ng/ml
[7] = Part 2 Day 14, 20 mg BID, at Cmax 353.00 ng/ml
[8] = Part 2 Day 14, 20 mg QD, at Cmax 250.00 ng/ml

For `CC(C)(C(=O)N1CCOc2c(C#N)cncc2C1)C(F)F` [Compound 1, 4-(3,3-difluoro-2,2-dimethyl-propanoyl)-3,5-dihydro-2H-pyrido[3,4-f] [1,4]oxazepine-9-carbonitrile], the “Predicted delta Heart Rate vs placebo” value [1] was −3.68 beats/min, the “Predicted delta PR Interval vs placebo” value [1] was 5.87 ms and the “Predicted delta QRS Duration vs placebo” value [1] was -0.04 ms. The “Predicted delta QTcF interval vs placebo” value [1] was -4.41 ms, the “Predicted delta Heart Rate vs placebo” value [2] was −2.62 beats/min and the “Predicted delta PR Interval vs placebo” value [2] was 6.70 ms. For the same compound, the “Predicted delta QRS Duration vs placebo” value [2] was 0.43 ms, the “Predicted delta QTcF interval vs placebo” value [2] was -3.88 ms and the “Predicted delta Heart Rate vs placebo” value [3] was −1.11 beats/min. The “Predicted delta PR Interval vs placebo” value [3] was 7.88 ms, the “Predicted delta QRS Duration vs placebo” value [3] was 1.10 ms and the “Predicted delta QTcF interval vs placebo” value [3] was -3.15 ms. For the same compound, the “Predicted delta Heart Rate vs placebo” value [4] was 0.06 beats/min, the “Predicted delta PR Interval vs placebo” value [4] was 8.80 ms and the “Predicted delta QRS Duration vs placebo” value [4] was 1.62 ms. For the same compound, the “Predicted delta QTcF interval vs placebo” value [4] was -2.57 ms, the “Predicted delta Heart Rate vs placebo” value [5] was 0.25 beats/min and the “Predicted delta PR Interval vs placebo” value [5] was -4.63 ms. For the same compound, the “Predicted delta QRS Duration vs placebo” value [5] was 2.52 ms, the “Predicted delta QTcF interval vs placebo” value [5] was -5.36 ms and the “Predicted delta Heart Rate vs placebo” value [6] was −0.26 beats/min. For the same compound, the “Predicted delta PR Interval vs placebo” value [6] was -4.53 ms, the “Predicted delta QRS Duration vs placebo” value [6] was 3.00 ms and the “Predicted delta QTcF interval vs placebo” value [6] was -3.74 ms. The “Predicted delta Heart Rate vs placebo” value [7] was −0.65 beats/min, the “Predicted delta PR Interval vs placebo” value [7] was -4.46 ms and the “Predicted delta QRS Duration vs placebo” value [7] was 3.37 ms. For the same compound, the “Predicted delta QTcF interval vs placebo” value [7] was -2.49 ms, the “Predicted delta Heart Rate vs placebo” value [8] was −0.18 beats/min and the “Predicted delta PR Interval vs placebo” value [8] was -4.55 ms. The “Predicted delta QRS Duration vs placebo” value [8] was 2.92 ms, the “Predicted delta QTcF interval vs placebo” value [8] was -4.01 ms and the “Effect on QTcF intervals” value (single dose up to 40 mg, repeated dose up to 20 mg BID) was “No clinically relevant dose-related effects”.
